Assay results reported in patent US10759810B2 (AO “TATKHIMFARMPREPARATY”, priority 2016, dated 2020).

Legend:
Assay type in all cases: cell-based
[1] = tested on: microorganism strains under study; assay: Antibacterial activity (MIC), whole strain panel; conditions: in words, from Table 1
Experimental: (§1) Measurement of antibacterial activity was carried out on the strains of Staphylococcus aureus ATCC 29213 (museum strain), Staphylococcus epidermidis (clinical isolate), Micrococcus luteus (clinical isolate), Bacillus subtilis 168 (museum strain), Escherichia coli ATCC 25922 (museum strain), Salmonella typhimurium TA100 (museum strain), Pseudomonas aeruginosa ATCC 27853 (museum strain). A comparative assessment of the spectrum of antibacterial action on reference strains and clinical isolates of gram-positive microorganisms was carried out using a micromethod for determining the minimum inhibitory concentration (MIC) using serial dilutions in Mueller-Hinton broth using 96-well sterile plates.
(§2) The first lowest concentration of the antibiotic (from a series of successive dilutions), where bacterial growth is not visually determined, is considered to be the minimum inhibitory concentration (MIC).
(§3) For the preparation of inoculum (infectious material used for artificial contamination), intended for the study of antibacterial activity, was used a pure daily culture of bacteria grown on a dense nutrient medium (agar LB medium). […] The inoculum was used for 15 minutes after preparation; the purity of the bacterial strains was monitored before each experiment. […]

[2] = tested on: Salmonella typhimurium TA100 (museum strain); assay: MIC, serial dilutions in Mueller-Hinton broth; conditions: inoculum 10^7 CFU/ml; gram-negative
Experimental: as §1, §2
(§4) For the preparation of inoculum (infectious material used for artificial contamination), intended for the study of antibacterial activity, was used a pure daily culture of bacteria grown on a dense nutrient medium (agar LB medium). In a sterile isotonic solution of sodium chloride, a suspension of microorganisms was prepared, adjusting the inoculum density to 0.5 according to the McFarland standard (1.5·10^8 CFU/ml). Then, the resulting inoculum was diluted to a concentration of 10^7 CFU/ml with LB-broth. The inoculum was used for 15 minutes after preparation; the purity of the bacterial strains was monitored before each experiment.
(§5) 100 μl of Muller-Hinton broth was added to the wells of each plate; the test base was introduced into the first well at a concentration of 128 μg/ml in a volume of 100 μl and its concentration was adjusted to 0.25 μg/ml by consecutive two-fold dilution. […] Each preparation in the experiment was titrated three times. […] In addition, the purity of nutrient media and solvents was monitored. The plates were incubated in a thermostat at […] for 24 hours.
(§6) The growth of cultures was assessed visually, comparing the growth of microorganisms in the presence of test compounds with the growth of culture without them.

[3] = tested on: Pseudomonas aeruginosa ATCC 27853 (museum strain); assay: MIC, serial dilutions in Mueller-Hinton broth; conditions: inoculum 10^7 CFU/ml; gram-negative
Experimental: as §1, §2, §4, §5, §6

[4] = tested on: Staphylococcus epidermidis (clinical isolate); assay: MIC, serial dilutions in Mueller-Hinton broth; conditions: inoculum 10^7 CFU/ml; gram-positive
Experimental: as §1, §2, §4, §5, §6

[5] = tested on: Escherichia coli ATCC 25922 (museum strain); assay: MIC, serial dilutions in Mueller-Hinton broth; conditions: inoculum 10^7 CFU/ml; gram-negative
Experimental: as §1, §2, §4, §5, §6

[6] = tested on: Bacillus subtilis 168 (museum strain); assay: MIC, serial dilutions in Mueller-Hinton broth; conditions: inoculum 10^7 CFU/ml; gram-positive
Experimental: as §1, §2, §4, §5, §6

[7] = tested on: Micrococcus luteus (clinical isolate); assay: MIC, serial dilutions in Mueller-Hinton broth; conditions: inoculum 10^7 CFU/ml; gram-positive
Experimental: as §1, §2, §4, §5, §6

[8] = tested on: Staphylococcus aureus ATCC 29213 (museum strain); assay: MIC, serial dilutions in Mueller-Hinton broth; conditions: inoculum 10^7 CFU/ml; gram-positive
Experimental: as §1, §2, §4, §5, §6

[9] = tested on: gram-positive microorganisms; assay: Antibacterial activity (MIC), gram-positive strains; conditions: in words, versus comparison drugs
Experimental: as §1, §2, §3

**Q.** Which “antibacterial activity against the microorganism strains under study” value [1] does the source give for “1-cyclopropyl-6-fluoro-7-(4-((5-hydroxy-2,4-bis(hydroxymethyl)-6-methylpyridine-3-yl) methyl) piperazinyl)-4-oxo-1,4-dihydroquinolin-3-carboxylic acid [Compound I-9]” here?
**A.** most active

**Q.** What about the “MIC, S. typhimurium” value [2] of the same substance?
**A.** 4 µg/mL

**Q.** And the “MIC, P. aerugenosa” value [3]?
**A.** >64 µg/mL

**Q.** What about the “MIC, S. epidermidis” value [4] of the same substance?
**A.** 8 µg/mL

**Q.** And the “MIC, E. coli” value [5]?
**A.** 64 µg/mL

**Q.** What about the “MIC, B. subtilis” value [6] of the same substance?
**A.** 4 µg/mL

**Q.** And the “MIC, M. luteus” value [7]?
**A.** 2 µg/mL

**Q.** And the “MIC, S. aureus” value [8]?
**A.** 0.5 µg/mL

**Q.** What about the “antibacterial action with respect to gram-positive microorganisms” value [9] of the same substance?
**A.** comparable with the comparison drugs
